Measured values: patent US10844077B2, “Thiazolyl-containing compounds for treating proliferative diseases” (Dana-Farber Cancer Institute, Inc., priority 2014, dated 2020)
Like-named read-outs stand apart in the source and are kept apart here.

Legend:
Format in all cases: binding
broad panel of kinases [1] = molecular target: broad panel of kinases (Homo sapiens, UniProt P23458); conditions: 1 μM
broad panel of kinases [2] = molecular target: broad panel of kinases (Homo sapiens, UniProt O00329); conditions: PIK3CD; 1 μM
broad panel of kinases [3] = molecular target: broad panel of kinases (Homo sapiens, UniProt P00533, DEL752-759); conditions: EGFR(S752-I759del); 1 μM
broad panel of kinases [4] = molecular target: broad panel of kinases (Homo sapiens, UniProt O15264); conditions: p38-delta; 1 μM
broad panel of kinases [5] = molecular target: broad panel of kinases (Homo sapiens, UniProt P22694); conditions: PKAC-beta; 1 μM
broad panel of kinases [6] = molecular target: broad panel of kinases (Homo sapiens, UniProt P36888, R834Q); conditions: FLT3(R834Q); 1 μM
broad panel of kinases [7] = molecular target: broad panel of kinases (Homo sapiens, UniProt P49840); conditions: GSK3A; 1 μM
broad panel of kinases [8] = molecular target: broad panel of kinases (Homo sapiens, UniProt P31751); conditions: AKT2; 1 μM
broad panel of kinases [9] = molecular target: broad panel of kinases (Homo sapiens, UniProt Q86Z02); conditions: HIPK1; 1 μM
broad panel of kinases [10] = molecular target: broad panel of kinases (Homo sapiens, UniProt P0C264); conditions: SgK110; 1 μM
broad panel of kinases [11] = molecular target: broad panel of kinases (Homo sapiens, UniProt O14757); conditions: CHEK1; 1 μM
broad panel of kinases [12] = molecular target: broad panel of kinases (Homo sapiens, UniProt Q92630); conditions: DYRK2; 1 μM
broad panel of kinases [13] = molecular target: broad panel of kinases (Homo sapiens, UniProt P22455); conditions: FGFR4; 1 μM
broad panel of kinases [14] = molecular target: broad panel of kinases (Homo sapiens, UniProt Q9NSY1); conditions: BIKE; 1 μM
broad panel of kinases [15] = molecular target: broad panel of kinases (Homo sapiens, UniProt P00519, Q252H); conditions: 1 μM
broad panel of kinases [16] = molecular target: broad panel of kinases (Homo sapiens, UniProt P29322); conditions: EPHA8; 1 μM
broad panel of kinases [17] = molecular target: broad panel of kinases (Homo sapiens, UniProt P07948); conditions: LYN; 1 μM
broad panel of kinases [18] = molecular target: broad panel of kinases (Homo sapiens, UniProt Q16539); conditions: p38-alpha; 1 μM
broad panel of kinases [19] = molecular target: broad panel of kinases (Homo sapiens, UniProt Q9H4B4); conditions: PLK3; 1 μM
broad panel of kinases [20] = molecular target: broad panel of kinases (Homo sapiens, UniProt Q9P1W9); conditions: PIM2; 1 μM
broad panel of kinases [21] = molecular target: broad panel of kinases (Homo sapiens, UniProt Q9Y616); conditions: IRAK3; 1 μM
broad panel of kinases [22] = molecular target: broad panel of kinases (Homo sapiens, UniProt P42336, C420R); conditions: PIK3CA(C420R); 1 μM
broad panel of kinases [23] = molecular target: broad panel of kinases (Homo sapiens, UniProt Q9UEE5); conditions: DRAK1; 1 μM
broad panel of kinases [24] = molecular target: broad panel of kinases (Homo sapiens, UniProt Q9H2X6); conditions: HIPK2; 1 μM
broad panel of kinases [25] = molecular target: broad panel of kinases (Homo sapiens, UniProt P21860); conditions: ERBB3; 1 μM
broad panel of kinases [26] = molecular target: broad panel of kinases (Homo sapiens, UniProt P42338); conditions: PIK3CB; 1 μM
broad panel of kinases [27] = molecular target: broad panel of kinases (Homo sapiens, UniProt Q00532); conditions: CDKL1; 1 μM
broad panel of kinases [28] = molecular target: broad panel of kinases (Homo sapiens, UniProt P00533, L858R); conditions: EGFR(L858R); 1 μM
broad panel of kinases [29] = molecular target: broad panel of kinases (Homo sapiens, UniProt P11309); conditions: P1M1 (PIM1); 1 μM
broad panel of kinases [30] = molecular target: broad panel of kinases (Homo sapiens, UniProt P32298); conditions: GRK4; 1 μM
broad panel of kinases [31] = molecular target: broad panel of kinases (Homo sapiens, UniProt Q13873); conditions: BMPR2; 1 μM
broad panel of kinases [32] = molecular target: broad panel of kinases (Homo sapiens, UniProt P09769); conditions: FGR; 1 μM
broad panel of kinases [33] = molecular target: broad panel of kinases (Homo sapiens, UniProt O00444); conditions: PLK4; 1 μM
broad panel of kinases [34] = molecular target: broad panel of kinases (Homo sapiens, UniProt O43293); conditions: DAPK3; 1 μM
broad panel of kinases [35] = molecular target: broad panel of kinases (Homo sapiens, UniProt Q9UF33); conditions: EPHA6; 1 μM
broad panel of kinases [36] = molecular target: broad panel of kinases (Homo sapiens, UniProt P00519); conditions: 1 μM

Sequence of broad panel of kinases (Homo sapiens, UniProt P29322) (P29322 28-1005 limits assumed): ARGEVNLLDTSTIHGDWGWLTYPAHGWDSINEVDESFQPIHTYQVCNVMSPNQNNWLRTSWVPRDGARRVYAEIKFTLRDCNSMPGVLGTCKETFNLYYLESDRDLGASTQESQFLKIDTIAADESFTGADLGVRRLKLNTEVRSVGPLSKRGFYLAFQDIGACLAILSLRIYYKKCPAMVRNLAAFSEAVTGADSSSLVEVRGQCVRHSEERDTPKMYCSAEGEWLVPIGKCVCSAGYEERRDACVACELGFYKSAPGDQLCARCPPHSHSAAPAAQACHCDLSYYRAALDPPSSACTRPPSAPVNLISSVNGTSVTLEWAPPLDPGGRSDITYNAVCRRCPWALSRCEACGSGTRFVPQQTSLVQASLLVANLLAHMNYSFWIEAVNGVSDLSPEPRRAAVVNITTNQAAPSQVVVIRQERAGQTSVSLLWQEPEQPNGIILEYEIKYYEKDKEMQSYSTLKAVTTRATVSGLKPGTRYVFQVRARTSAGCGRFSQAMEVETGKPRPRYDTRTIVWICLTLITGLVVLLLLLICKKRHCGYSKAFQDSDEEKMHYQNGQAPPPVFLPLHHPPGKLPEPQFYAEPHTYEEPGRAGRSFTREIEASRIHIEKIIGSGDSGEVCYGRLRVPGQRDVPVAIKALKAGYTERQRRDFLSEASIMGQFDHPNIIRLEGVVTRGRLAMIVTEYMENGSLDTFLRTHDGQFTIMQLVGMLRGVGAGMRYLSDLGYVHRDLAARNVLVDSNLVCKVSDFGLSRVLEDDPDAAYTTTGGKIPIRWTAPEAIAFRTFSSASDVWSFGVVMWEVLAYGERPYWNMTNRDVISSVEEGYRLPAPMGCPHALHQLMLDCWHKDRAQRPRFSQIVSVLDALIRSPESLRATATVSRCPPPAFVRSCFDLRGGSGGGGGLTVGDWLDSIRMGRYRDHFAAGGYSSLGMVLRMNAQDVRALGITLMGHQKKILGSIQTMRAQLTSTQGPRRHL
Sequence of broad panel of kinases (Homo sapiens, UniProt P21860) (P21860 20-1342 limits assumed): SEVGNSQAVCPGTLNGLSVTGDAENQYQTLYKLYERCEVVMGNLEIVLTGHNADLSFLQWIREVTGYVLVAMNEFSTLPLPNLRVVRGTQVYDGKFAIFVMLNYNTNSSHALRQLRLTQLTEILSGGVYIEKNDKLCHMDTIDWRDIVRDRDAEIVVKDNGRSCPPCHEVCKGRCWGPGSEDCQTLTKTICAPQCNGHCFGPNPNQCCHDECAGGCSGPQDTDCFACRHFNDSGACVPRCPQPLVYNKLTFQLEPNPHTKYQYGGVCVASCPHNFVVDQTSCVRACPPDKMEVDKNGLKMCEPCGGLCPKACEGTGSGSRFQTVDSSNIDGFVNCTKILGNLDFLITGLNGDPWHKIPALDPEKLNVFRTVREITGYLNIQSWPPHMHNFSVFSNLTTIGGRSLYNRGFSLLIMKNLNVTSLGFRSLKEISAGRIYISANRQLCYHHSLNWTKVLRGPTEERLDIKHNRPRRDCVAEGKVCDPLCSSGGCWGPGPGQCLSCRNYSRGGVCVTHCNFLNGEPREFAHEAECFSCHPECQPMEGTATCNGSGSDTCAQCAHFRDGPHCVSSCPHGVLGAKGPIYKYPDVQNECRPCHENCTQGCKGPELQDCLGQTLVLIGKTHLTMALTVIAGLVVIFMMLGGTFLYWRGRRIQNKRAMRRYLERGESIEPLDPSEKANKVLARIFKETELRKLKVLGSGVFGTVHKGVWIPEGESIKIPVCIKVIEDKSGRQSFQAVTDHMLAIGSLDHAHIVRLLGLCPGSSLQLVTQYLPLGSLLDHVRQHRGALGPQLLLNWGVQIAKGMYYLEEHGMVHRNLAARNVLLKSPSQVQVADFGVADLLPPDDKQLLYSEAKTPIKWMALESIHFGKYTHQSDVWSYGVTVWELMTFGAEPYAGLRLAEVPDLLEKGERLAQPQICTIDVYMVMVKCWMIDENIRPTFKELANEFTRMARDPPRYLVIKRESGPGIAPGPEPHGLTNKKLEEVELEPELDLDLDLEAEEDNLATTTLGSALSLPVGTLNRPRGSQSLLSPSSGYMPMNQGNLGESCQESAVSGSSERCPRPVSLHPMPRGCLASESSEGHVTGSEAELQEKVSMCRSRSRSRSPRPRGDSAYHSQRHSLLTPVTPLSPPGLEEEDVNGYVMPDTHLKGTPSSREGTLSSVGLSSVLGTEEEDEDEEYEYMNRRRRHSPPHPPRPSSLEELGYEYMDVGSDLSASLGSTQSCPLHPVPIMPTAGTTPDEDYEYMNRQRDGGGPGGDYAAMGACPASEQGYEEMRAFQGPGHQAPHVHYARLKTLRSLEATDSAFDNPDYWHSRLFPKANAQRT
Sequence of broad panel of kinases (Homo sapiens, UniProt Q16539) (Q16539 2-360 limits assumed): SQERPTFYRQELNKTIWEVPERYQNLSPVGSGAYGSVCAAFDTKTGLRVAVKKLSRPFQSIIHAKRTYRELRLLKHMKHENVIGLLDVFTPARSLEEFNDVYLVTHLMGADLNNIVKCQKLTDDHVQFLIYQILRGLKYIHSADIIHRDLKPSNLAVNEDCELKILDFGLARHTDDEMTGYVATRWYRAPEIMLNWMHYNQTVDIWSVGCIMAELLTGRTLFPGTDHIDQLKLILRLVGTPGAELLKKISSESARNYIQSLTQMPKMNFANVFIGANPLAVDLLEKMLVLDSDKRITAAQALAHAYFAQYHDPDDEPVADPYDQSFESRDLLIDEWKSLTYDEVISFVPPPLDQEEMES
Sequence of broad panel of kinases (Homo sapiens, UniProt P22455) (P22455 22-802 limits assumed): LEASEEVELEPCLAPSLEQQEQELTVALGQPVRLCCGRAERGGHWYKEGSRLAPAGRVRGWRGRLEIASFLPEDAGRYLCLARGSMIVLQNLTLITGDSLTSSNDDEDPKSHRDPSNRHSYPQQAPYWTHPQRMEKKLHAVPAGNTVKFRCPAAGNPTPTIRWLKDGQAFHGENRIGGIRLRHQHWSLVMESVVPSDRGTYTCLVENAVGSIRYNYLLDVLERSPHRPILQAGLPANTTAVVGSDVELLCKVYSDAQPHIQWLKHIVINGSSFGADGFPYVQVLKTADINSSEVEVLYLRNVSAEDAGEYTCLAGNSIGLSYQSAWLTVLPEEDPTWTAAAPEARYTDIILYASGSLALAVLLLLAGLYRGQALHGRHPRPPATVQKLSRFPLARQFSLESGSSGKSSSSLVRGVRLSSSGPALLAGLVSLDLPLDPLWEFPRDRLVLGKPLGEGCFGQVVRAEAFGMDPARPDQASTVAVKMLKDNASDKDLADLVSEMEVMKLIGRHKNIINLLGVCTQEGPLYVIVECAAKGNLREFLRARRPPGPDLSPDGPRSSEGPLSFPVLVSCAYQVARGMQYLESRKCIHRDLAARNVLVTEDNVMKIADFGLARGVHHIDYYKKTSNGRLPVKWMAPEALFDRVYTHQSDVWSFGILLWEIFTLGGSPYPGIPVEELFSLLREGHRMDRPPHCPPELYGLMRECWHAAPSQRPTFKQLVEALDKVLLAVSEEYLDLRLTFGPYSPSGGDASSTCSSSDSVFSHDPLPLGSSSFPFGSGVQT
Sequence of broad panel of kinases (Homo sapiens, UniProt P00533, DEL752-759) (P00533 with tags, fused parts or gaps DEL752-759 limits assumed): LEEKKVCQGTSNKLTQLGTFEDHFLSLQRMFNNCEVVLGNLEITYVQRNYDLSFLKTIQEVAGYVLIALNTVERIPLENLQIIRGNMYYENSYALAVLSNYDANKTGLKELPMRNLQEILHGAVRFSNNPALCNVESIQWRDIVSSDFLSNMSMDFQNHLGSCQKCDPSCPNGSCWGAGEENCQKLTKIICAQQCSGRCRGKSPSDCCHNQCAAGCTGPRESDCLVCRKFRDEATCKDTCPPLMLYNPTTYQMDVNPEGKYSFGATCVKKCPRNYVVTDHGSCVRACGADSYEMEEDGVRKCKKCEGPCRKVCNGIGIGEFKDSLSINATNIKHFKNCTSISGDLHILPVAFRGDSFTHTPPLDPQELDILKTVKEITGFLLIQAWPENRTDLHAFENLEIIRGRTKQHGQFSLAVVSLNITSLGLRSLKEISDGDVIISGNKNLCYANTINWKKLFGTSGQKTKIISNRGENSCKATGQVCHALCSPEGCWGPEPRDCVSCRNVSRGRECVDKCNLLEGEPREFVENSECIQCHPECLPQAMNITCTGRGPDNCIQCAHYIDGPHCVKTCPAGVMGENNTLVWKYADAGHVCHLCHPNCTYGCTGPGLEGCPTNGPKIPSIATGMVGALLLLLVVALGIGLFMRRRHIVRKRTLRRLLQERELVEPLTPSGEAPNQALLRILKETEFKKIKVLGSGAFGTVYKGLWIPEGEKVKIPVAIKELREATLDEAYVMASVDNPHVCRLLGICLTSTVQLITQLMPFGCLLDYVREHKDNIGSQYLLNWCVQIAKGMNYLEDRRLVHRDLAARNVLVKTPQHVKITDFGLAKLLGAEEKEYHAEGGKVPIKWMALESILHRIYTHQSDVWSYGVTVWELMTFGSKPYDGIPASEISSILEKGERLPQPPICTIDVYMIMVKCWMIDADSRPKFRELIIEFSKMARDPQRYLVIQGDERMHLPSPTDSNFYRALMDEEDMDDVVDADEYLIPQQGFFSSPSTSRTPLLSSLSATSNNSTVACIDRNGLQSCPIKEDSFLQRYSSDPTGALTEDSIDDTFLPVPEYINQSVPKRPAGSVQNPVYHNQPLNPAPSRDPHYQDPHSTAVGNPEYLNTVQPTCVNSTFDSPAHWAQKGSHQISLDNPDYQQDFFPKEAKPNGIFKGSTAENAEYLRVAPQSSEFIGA
Sequence of broad panel of kinases (Homo sapiens, UniProt P49840) (P49840 2-483 limits assumed): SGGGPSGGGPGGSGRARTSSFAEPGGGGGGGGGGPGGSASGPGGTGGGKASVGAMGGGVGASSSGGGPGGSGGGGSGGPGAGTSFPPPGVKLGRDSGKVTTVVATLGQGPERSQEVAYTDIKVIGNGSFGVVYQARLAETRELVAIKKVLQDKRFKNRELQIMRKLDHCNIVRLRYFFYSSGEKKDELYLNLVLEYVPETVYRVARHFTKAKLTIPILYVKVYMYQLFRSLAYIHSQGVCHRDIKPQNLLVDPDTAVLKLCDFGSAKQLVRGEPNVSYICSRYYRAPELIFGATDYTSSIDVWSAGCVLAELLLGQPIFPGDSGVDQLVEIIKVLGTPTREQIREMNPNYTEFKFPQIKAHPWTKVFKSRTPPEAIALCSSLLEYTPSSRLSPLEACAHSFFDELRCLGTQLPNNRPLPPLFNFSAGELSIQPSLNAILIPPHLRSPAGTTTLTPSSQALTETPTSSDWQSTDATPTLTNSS

Row | SMILES | percent of control binding remaining (lower = stronger binding) (broad panel of kinases [1]; JAK1(JH1domain-catalytic)) [%] | percent of control binding remaining (lower = stronger binding) (broad panel of kinases [1]; JAK1(JH2domain-pseudokinase)) [%] | percent of control binding remaining (lower = stronger binding) (broad panel of kinases [2]) [%] | percent of control binding remaining (lower = stronger binding) (broad panel of kinases [3]) [%] | percent of control binding remaining (lower = stronger binding) (broad panel of kinases [4]) [%] | percent of control binding remaining (lower = stronger binding) (broad panel of kinases [5]) [%] | percent of control binding remaining (lower = stronger binding) (broad panel of kinases [6]) [%] | percent of control binding remaining (lower = stronger binding) (broad panel of kinases [7]) [%] | percent of control binding remaining (lower = stronger binding) (broad panel of kinases [8]) [%] | percent of control binding remaining (lower = stronger binding) (broad panel of kinases [9]) [%] | percent of control binding remaining (lower = stronger binding) (broad panel of kinases [10]) [%] | percent of control binding remaining (lower = stronger binding) (broad panel of kinases [11]) [%] | percent of control binding remaining (lower = stronger binding) (broad panel of kinases [12]) [%] | percent of control binding remaining (lower = stronger binding) (broad panel of kinases [13]) [%] | percent of control binding remaining (lower = stronger binding) (broad panel of kinases [14]) [%] | percent of control binding remaining (lower = stronger binding) (broad panel of kinases [16]) [%] | percent of control binding remaining (lower = stronger binding) (broad panel of kinases [17]) [%] | percent of control binding remaining (lower = stronger binding) (broad panel of kinases [18]) [%] | percent of control binding remaining (lower = stronger binding) (broad panel of kinases [19]) [%] | percent of control binding remaining (lower = stronger binding) (broad panel of kinases [20]) [%] | also measured
1 | C=CC(=O)N1CC[C@H](Nc2nc(CN3CCOCC3)cc(Nc3ncc(C(=O)Nc4c(C)cccc4C)s3)n2)C1 [Example I-2] | 100 | 100 | 79 | 17 | 100 | 92 | 100 | 100 | 88 | 93 | 59 | 88 | 88 | 100 | 100 | 0.75 | 0 | 0.1 | 99 | 84 | percent of control binding remaining (lower = stronger binding) (broad panel of kinases [15]; ABL1(Q252H)-nonphosphorylated): 0.3%; percent of control binding remaining (lower = stronger binding) (broad panel of kinases [15]; ABL1(Q252H)-phosphorylated): 0.25%; percent of control binding remaining (lower = stronger binding) (broad panel of kinases [21]): 93%; percent of control binding remaining (lower = stronger binding) (broad panel of kinases [22]): 100%; percent of control binding remaining (lower = stronger binding) (broad panel of kinases [23]): 100%; percent of control binding remaining (lower = stronger binding) (broad panel of kinases [24]): 97%; percent of control binding remaining (lower = stronger binding) (broad panel of kinases [25]): 0.1%; percent of control binding remaining (lower = stronger binding) (broad panel of kinases [26]): 100%; percent of control binding remaining (lower = stronger binding) (broad panel of kinases [27]): 100%; percent of control binding remaining (lower = stronger binding) (broad panel of kinases [28]): 0%; percent of control binding remaining (lower = stronger binding) (broad panel of kinases [29]): 97%; percent of control binding remaining (lower = stronger binding) (broad panel of kinases [30]): 100%; percent of control binding remaining (lower = stronger binding) (broad panel of kinases [31]): 100%; percent of control binding remaining (lower = stronger binding) (broad panel of kinases [32]): 0.1%; percent of control binding remaining (lower = stronger binding) (broad panel of kinases [33]): 73%; percent of control binding remaining (lower = stronger binding) (broad panel of kinases [34]): 89%; percent of control binding remaining (lower = stronger binding) (broad panel of kinases [35]): 100%; percent of control binding remaining (lower = stronger binding) (broad panel of kinases [36]; ABL1-nonphosphorylated): 0.05%; percent of control binding remaining (lower = stronger binding) (broad panel of kinases [36]; ABL1-phosphorylated): 0%
2 | C=CC(=O)N1CC[C@H](Nc2nccc(Nc3ncc(C(=O)Nc4c(C)cccc4C)s3)n2)C1 [Example I-3] | 100 | 100 | 85 | 4.6 | 100 | 100 | 100 | 97 | 100 | 95 | 95 | 84 | 74 | 100 | 90 | 0.45 | 0.1 | 0.2 | 97 | 72 | % change compared to control (broad panel of kinases [15]; ABL1(Q252H)-nonphosphorylated): 0.15%; % change compared to control (broad panel of kinases [15]; ABL1(Q252H)-phosphorylated): 0.3%; percent of control binding remaining (lower = stronger binding) (broad panel of kinases [21]): 93%; percent of control binding remaining (lower = stronger binding) (broad panel of kinases [22]): 99%; percent of control binding remaining (lower = stronger binding) (broad panel of kinases [23]): 100%; percent of control binding remaining (lower = stronger binding) (broad panel of kinases [24]): 100%; percent of control binding remaining (lower = stronger binding) (broad panel of kinases [25]): 0.8%; percent of control binding remaining (lower = stronger binding) (broad panel of kinases [26]): 100%; percent of control binding remaining (lower = stronger binding) (broad panel of kinases [27]): 93%; percent of control binding remaining (lower = stronger binding) (broad panel of kinases [28]): 0.75%; percent of control binding remaining (lower = stronger binding) (broad panel of kinases [29]): 95%; percent of control binding remaining (lower = stronger binding) (broad panel of kinases [30]): 100%; percent of control binding remaining (lower = stronger binding) (broad panel of kinases [31]): 100%; percent of control binding remaining (lower = stronger binding) (broad panel of kinases [32]): 0%; percent of control binding remaining (lower = stronger binding) (broad panel of kinases [33]): 82%; percent of control binding remaining (lower = stronger binding) (broad panel of kinases [34]): 84%; percent of control binding remaining (lower = stronger binding) (broad panel of kinases [35]): 100%; % change compared to control (broad panel of kinases [36]; ABL1-nonphosphorylated): 0.1%; % change compared to control (broad panel of kinases [36]; ABL1-phosphorylated): 0%
